For 15 compounds, IC50 results are on record in publication PMC10318143, “Optimized bisubstrate inhibitors for the actin N-terminal acetyltransferase NAA80” (Frontiers in Chemistry, 2023).

*1 amine or outer side, *2 acyl side, *3 side chain or, on linkers, in order; H or OH if unused. Where a SMILES comes first, the peptide text is derived from it. [ ]: non-standard residue; d: D form. The star is where a group is joined. Pantoyl(4-O-3'-P-ADP) = CC(C)(COP(=O)(O)OP(=O)(O)OC[C@H]1O[C@@H](n2cnc3c(N)ncnc32)[C@H](O)[C@@H]1OP(=O)(O)O)[C@@H](O)C(=O)*; NHCH2CH2SCH2CO = O=C(CSCCN[*:1])[*:2]; βAla = NCCC(=O)O

A word on the IC50: it is the concentration that inhibits the measured activity by half.

The target of the first test is T1, MBP-hNAA80 (Homo sapiens, UniProt Q93015).
T1 construct: made in house; host or cells: Escherichia coli BL21 star
T1 sequence (Q93015 1-286): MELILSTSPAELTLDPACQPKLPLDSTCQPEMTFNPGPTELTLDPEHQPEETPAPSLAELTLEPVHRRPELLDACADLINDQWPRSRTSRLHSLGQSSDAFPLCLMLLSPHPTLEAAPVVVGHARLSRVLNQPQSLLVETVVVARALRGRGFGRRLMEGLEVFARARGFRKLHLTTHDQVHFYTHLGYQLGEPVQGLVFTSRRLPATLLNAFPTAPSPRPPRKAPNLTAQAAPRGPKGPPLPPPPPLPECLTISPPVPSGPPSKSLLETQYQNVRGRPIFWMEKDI
Test: not given
More on the design: method as in Goris et al., 2018. The note with it: DTNB assay; ± standard deviation; ref Goris et al., 2018; cited from earlier work.
Regarding `CC[C@H](C)[C@H](NC(=O)[C@H](CC(=O)O)NC(=O)[C@H](CC(=O)O)NC(=O)[C@H](CC(=O)O)NC(=O)CSCCNC(=O)CCNC(=O)[C@H](O)C(C)(C)COP(=O)(O)OP(=O)(O)OC[C@H]1O[C@@H](n2cnc3c(N)ncnc32)[C@H](O)[C@@H]1OP(=O)(O)O)C(N)=O` [CoA-DDDI-NH2, CoA-Ac-DDDI-NH2] ({Pantoyl(4-O-3'-P-ADP)-βAla}-[NHCH2CH2SCH2CO]DDDI-NH2), the 50% inhibitory concentration (IC50) was 380 ± 100 nM.
As to “CoA-EEEI-NH2: previously reported bisubstrate inhibitor: coenzyme A conjugated via acetyl linker to tetrapeptide amide EEEI (γ-actin N-terminus) (not fully specified; N-terminal amine acylated with acetyl linker thioether-bonded to coenzyme A sulfur (CoA-S-CH2-CO-); C-terminal amide)”, the IC50 is 1160 ± 110 nM.
“CoA-MDEL-NH2: previously reported bisubstrate inhibitor: coenzyme A conjugated via acetyl linker to tetrapeptide amide MDEL (not fully specified; N-terminal amine acylated with acetyl linker thioether-bonded to coenzyme A sulfur (CoA-S-CH2-CO-); C-terminal amide)”: the half-inhibitory concentration (IC50) was 1260 ± 100 nM.

A further test concerns the target T1, MBP-hNAA80. Nature of the test: In vitro DTNB Nt-acetyltransferase inhibitor assay. The note with it: 300 μM Ac-CoA, 300 μM substrate peptide, Tris pH 8.5, triplicates, ± standard deviation. Type of test: biochemical. As for the experimental part:
The enzymatic activity of MBP-hNAA80 was measured using a 5,5′-dithiobis-(2-nitrobenzoic acid, DTNB) assay as described previously by Foyn et al. ([Foyn et al., 2017]) and Drazic et al. ([Drazic et al., 2018]) Briefly, the thiol group exposed in the enzymatic product CoA cleaves DTNB and produces 2-nitro-5-thiobenzonate (TNB^−) which ionize to TNB^2- in neutral or alkaline pH and is readily quantified by measuring the absorbance at 412 nm.
An in vitro DTNB assay with enzyme (10–600 nM), 300 μM Ac-CoA, 300 μM substrate peptide, acetylation buffer (Tris, pH 8.5), and at least nine different inhibitor concentrations ranging from 0 to 500 μM was used to calculate the IC50 value for each bisubstrate inhibitor applied in the assay. The reaction was carried out as previously described ([Drazic et al., 2018]; [Goris et al., 2018]), and within a timeframe of 15–50 min. All measurements were performed in triplicates.
The compound `CC(C)C[C@H](NC(=O)[C@H](CCC(=O)O)NC(=O)[C@H](CC(=O)O)NC(=O)[C@@H]1CCCN1C(=O)CSCCNC(=O)CCNC(=O)[C@H](O)C(C)(C)COP(=O)(O)OP(=O)(O)OC[C@H]1O[C@@H](n2cnc3c(N)ncnc32)[C@H](O)[C@@H]1OP(=O)(O)O)C(N)=O` [CoA-PDEL-NH2, CoA-Ac-PDEL-NH2] ({Pantoyl(4-O-3'-P-ADP)-βAla}-[NHCH2CH2SCH2CO]PDEL-NH2) showed an IC50 of 13400 ± 2240 nM.
For the compound `CC[C@H](C)[C@H](NC(=O)[C@H](CCC(=O)O)NC(=O)[C@H](CC(=O)O)NC(=O)[C@H](CCC(=O)O)NC(=O)CSCCNC(=O)CCNC(=O)[C@H](O)C(C)(C)COP(=O)(O)OP(=O)(O)OC[C@H]1O[C@@H](n2cnc3c(N)ncnc32)[C@H](O)[C@@H]1OP(=O)(O)O)C(N)=O` [CoA-EDEI-NH2, CoA-Ac-EDEI-NH2] ({Pantoyl(4-O-3'-P-ADP)-βAla}-[NHCH2CH2SCH2CO]EDEI-NH2), the IC50 was determined as 760 ± 180 nM.
Still for that read-out and setting: the result for `CC(C)C[C@H](NC(=O)[C@H](CCC(=O)O)NC(=O)[C@H](CCC(=O)O)NC(=O)[C@H](CC(=O)O)NC(=O)CSCCNC(=O)CCNC(=O)[C@H](O)C(C)(C)COP(=O)(O)OP(=O)(O)OC[C@H]1O[C@@H](n2cnc3c(N)ncnc32)[C@H](O)[C@@H]1OP(=O)(O)O)C(N)=O` [CoA-DEEL-NH2, CoA-Ac-DEEL-NH2] ({Pantoyl(4-O-3'-P-ADP)-βAla}-[NHCH2CH2SCH2CO]DEEL-NH2) reads 4730 ± 1430 nM.
As to `CC[C@H](C)[C@H](NC(=O)[C@H](CCC(=O)O)NC(=O)[C@H](CCC(=O)O)NC(=O)[C@H](CC(=O)O)NC(=O)CSCCNC(=O)CCNC(=O)[C@H](O)C(C)(C)COP(=O)(O)OP(=O)(O)OC[C@H]1O[C@@H](n2cnc3c(N)ncnc32)[C@H](O)[C@@H]1OP(=O)(O)O)C(N)=O` [CoA-DEEI-NH2, CoA-Ac-DEEI-NH2] ({Pantoyl(4-O-3'-P-ADP)-βAla}-[NHCH2CH2SCH2CO]DEEI-NH2), the IC50 stood at 1220 ± 330 nM.
The same measure, in the same setting: the result for `CC[C@H](C)[C@H](NC(=O)[C@H](CC(=O)O)NC(=O)[C@H](CCC(=O)O)NC(=O)[C@H](CCC(=O)O)NC(=O)CSCCNC(=O)CCNC(=O)[C@H](O)C(C)(C)COP(=O)(O)OP(=O)(O)OC[C@H]1O[C@@H](n2cnc3c(N)ncnc32)[C@H](O)[C@@H]1OP(=O)(O)O)C(N)=O` [CoA-EEDI-NH2, CoA-Ac-EEDI-NH2] ({Pantoyl(4-O-3'-P-ADP)-βAla}-[NHCH2CH2SCH2CO]EEDI-NH2) reads 170 ± 40 nM; that for `CC(C)C[C@H](NC(=O)[C@H](CC(=O)O)NC(=O)[C@H](CCC(=O)O)NC(=O)[C@H](CCC(=O)O)NC(=O)CSCCNC(=O)CCNC(=O)[C@H](O)C(C)(C)COP(=O)(O)OP(=O)(O)OC[C@H]1O[C@@H](n2cnc3c(N)ncnc32)[C@H](O)[C@@H]1OP(=O)(O)O)C(N)=O` [CoA-EEDL-NH2, CoA-Ac-EEDL-NH2] ({Pantoyl(4-O-3'-P-ADP)-βAla}-[NHCH2CH2SCH2CO]EEDL-NH2), 1760 ± 520 nM; that for `CC(C)C[C@H](NC(=O)[C@H](CCC(=O)O)NC(=O)[C@H](CCC(=O)O)NC(=O)[C@H](CCC(=O)O)NC(=O)CSCCNC(=O)CCNC(=O)[C@H](O)C(C)(C)COP(=O)(O)OP(=O)(O)OC[C@H]1O[C@@H](n2cnc3c(N)ncnc32)[C@H](O)[C@@H]1OP(=O)(O)O)C(N)=O` [CoA-EEEL-NH2, CoA-Ac-EEEL-NH2] ({Pantoyl(4-O-3'-P-ADP)-βAla}-[NHCH2CH2SCH2CO]EEEL-NH2), 1160 ± 120 nM.
Still for that read-out and setting: the result for `CC[C@H](C)[C@H](NC(=O)[C@H](CC(=O)O)NC(=O)[C@H](CC(=O)O)NC(=O)[C@H](CCC(=O)O)NC(=O)CSCCNC(=O)CCNC(=O)[C@H](O)C(C)(C)COP(=O)(O)OP(=O)(O)OC[C@H]1O[C@@H](n2cnc3c(N)ncnc32)[C@H](O)[C@@H]1OP(=O)(O)O)C(N)=O` [CoA-EDDI-NH2, CoA-Ac-EDDI-NH2] ({Pantoyl(4-O-3'-P-ADP)-βAla}-[NHCH2CH2SCH2CO]EDDI-NH2) reads 120 ± 50 nM; that for `CC(C)C[C@H](NC(=O)[C@H](CCC(=O)O)NC(=O)[C@H](CO)NC(=O)[C@H](CCC(=O)O)NC(=O)CSCCNC(=O)CCNC(=O)[C@H](O)C(C)(C)COP(=O)(O)OP(=O)(O)OC[C@H]1O[C@@H](n2cnc3c(N)ncnc32)[C@H](O)[C@@H]1OP(=O)(O)O)C(N)=O` [CoA-ESEL-NH2, CoA-Ac-ESEL-NH2] ({Pantoyl(4-O-3'-P-ADP)-βAla}-[NHCH2CH2SCH2CO]ESEL-NH2), 11500 ± 3230 nM.
Same read-out and setting: in the case of `CC[C@H](C)[C@H](NC(=O)[C@H](CCC(=O)O)NC(=O)[C@H](CC(=O)O)NC(=O)[C@H](CC(=O)O)NC(=O)CSCCNC(=O)CCNC(=O)[C@H](O)C(C)(C)COP(=O)(O)OP(=O)(O)OC[C@H]1O[C@@H](n2cnc3c(N)ncnc32)[C@H](O)[C@@H]1OP(=O)(O)O)C(N)=O` [CoA-DDEI-NH2, CoA-Ac-DDEI-NH2] ({Pantoyl(4-O-3'-P-ADP)-βAla}-[NHCH2CH2SCH2CO]DDEI-NH2) it was 2670 ± 670 nM.
Take `CC(C)C[C@H](NC(=O)[C@H](CCC(N)=O)NC(=O)[C@H](CC(=O)O)NC(=O)[C@H](CCC(=O)O)NC(=O)CSCCNC(=O)CCNC(=O)[C@H](O)C(C)(C)COP(=O)(O)OP(=O)(O)OC[C@H]1O[C@@H](n2cnc3c(N)ncnc32)[C@H](O)[C@@H]1OP(=O)(O)O)C(N)=O` [CoA-EDQL-NH2, CoA-Ac-EDQL-NH2] ({Pantoyl(4-O-3'-P-ADP)-βAla}-[NHCH2CH2SCH2CO]EDQL-NH2): the IC50 worked out at 850 ± 50 nM.
The same measure, in the same setting: in the case of `CC(C)C[C@H](NC(=O)[C@H](CCC(=O)O)NC(=O)[C@H](CC(=O)O)NC(=O)[C@H](CCC(=O)O)NC(=O)CSCCNC(=O)CCNC(=O)[C@H](O)C(C)(C)COP(=O)(O)OP(=O)(O)OC[C@H]1O[C@@H](n2cnc3c(N)ncnc32)[C@H](O)[C@@H]1OP(=O)(O)O)C(N)=O` [CoA-EDEL-NH2, CoA-Ac-EDEL-NH2] ({Pantoyl(4-O-3'-P-ADP)-βAla}-[NHCH2CH2SCH2CO]EDEL-NH2) it was 150 ± 20 nM.
